{
  "source": "patent US7776882B2",
  "about": "“2-amino-3,4-dihydro-quinoline derivatives useful as inhibitors of β-secretase (BACE)” (priority 2006, dated 2010)",
  "assay_type_in_all_cases": "biochemical",
  "key": {"β-secretase (BACE) [1]": {"molecular_target": "T1, β-secretase (BACE) (Homo sapiens, UniProt P56817)", "T1 construct": "purchased Panvera", "T1 sequence (P56817 46-501)": "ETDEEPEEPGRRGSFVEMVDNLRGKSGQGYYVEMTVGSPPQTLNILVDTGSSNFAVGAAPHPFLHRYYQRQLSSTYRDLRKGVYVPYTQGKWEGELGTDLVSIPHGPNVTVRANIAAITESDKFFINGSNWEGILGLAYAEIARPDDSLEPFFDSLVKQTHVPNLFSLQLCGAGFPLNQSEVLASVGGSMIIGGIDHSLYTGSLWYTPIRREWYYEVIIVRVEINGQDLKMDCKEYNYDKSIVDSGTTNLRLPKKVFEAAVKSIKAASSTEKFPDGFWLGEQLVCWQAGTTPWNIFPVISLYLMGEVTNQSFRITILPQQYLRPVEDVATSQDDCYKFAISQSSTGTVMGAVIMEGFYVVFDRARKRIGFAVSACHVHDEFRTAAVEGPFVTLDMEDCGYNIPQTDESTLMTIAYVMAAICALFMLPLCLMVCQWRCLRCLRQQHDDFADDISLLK", "experiment": "In Vitro BACE % Inhibition Assay, (Aedens)-[…]-(Dabcyl K-amide) substrate (Example 12)", "conditions": "for % Inhibition 3 μM: 3 μM compound; for % Inhibition 3 μM / % Inhibition 10 μM: values below about 25% (including negative) within noise; for % Inhibition 10 μM: 10 μM compound", "procedure": "The following reagents were used in this assay: sodium acetate, PEG8000 (Sigma), DMSO, HEPES, (Aedens)-[…]-(Dabcyl K-amide) substrate, β-secretase (BACE) (Panvera), and 96-well plate (HE microplate, Molecular Devices).\n(§1) The following assay buffers were prepared and used in this assay: (1) enzyme assay buffer (0.05 M sodium acetate, pH5, 0.1% PEG8000 (w/v)), (2) substrate assay buffer (0.05 M sodium acetate, pH5), and (3) compound vehicle (30% DMSO in 50 mM HEPES, pH 7.4).\n(§2) The substrate stock solution was prepared in DMSO as a 10 mg/mL solution. The substrate working solution was prepared by diluting the 10 mg/mL stock solution with substrate assay buffer to a final concentration of 300 μg/mL. The β-secretase (BACE) working solution was prepared by diluting a 0.83 mg/mL BACE stock solution with enzyme assay buffer to a final concentration of 4 μg/mL.\nTest compounds were dissolved in DMSO to 10 mM. Compounds were further diluted in vehicle to various concentrations in the range of 405 μM to 4.05 μM (13.5×final compound concentration in screening plate).\nThe screening procedure for this assay was as follows: 15 μL of BACE working solution was pipetted into each well of a 96-well plate. To each well was then pipetted 2 μL of test compound at the selected concentration. Test compound and BACE were then mixed with a pipettor and incubated for 20 min at room temperature. To each well was then added 10 μL of the substrate working solution. The plates were then incubated for 1 hour at room temperature. The fluorescence for each well was then measured on an LJL analyst (Ex 360 nm/Em 530 nm).\nThe procedure for the blank (negative control) was as follows. 15 μL of assay buffer was pipetted into each well to be used as a blank control. To each well was then added 2 μL of vehicle and 10 μL of substrate working solution. The plates were then incubated for 1 hour at room temperature. The fluorescence was measured on an LJL analyst (Ex 360 nm/Em 530 nm).\nThe procedure for the positive control was as follows: 15 μl of BACE working solution was pipetted into each well to be used as a positive control. To each well was then pipetted 2 μL of vehicle. Vehicle and BACE were then mixed with a pipettor and incubated for 20 min at room temperature. To each well was then added 10 μL of the substrate working solution. The plates were then incubated for 1 hour at room temperature. The fluorescence (Fl) was then measured on an LJL analyst (Ex 360 nm/Em 530 nm).\nFor test compounds, % inhibition was determined at each concentration as follows:\n% Inhibition values of less than 30% were indistinguishable from control and are listed as ≦30% in the Table below."}, "β-secretase (BACE) [2]": {"molecular_target": "T1, β-secretase (BACE)", "experiment": "In Vitro BACE Assay, Ki (Example 11)", "conditions": "Ki (μM) (Example 11), FS1 substrate 50 μM, Km 24 μM", "procedure": "The following reagents were used in this assay: sodium acetate, PEG8000 (Sigma), DMSO, HEPES, FS1 substrate [R(AedensE)[…]-(DabcylK)R], β-secretase (BACE) (Panvera), and 96-well plate (HE microplate, Molecular Devices).\nas §1\nas §2, with “The FS1-substrate” for “The substrate”\nTest compounds were dissolved in DMSO at 10 mM.\n(§3) The procedure for this assay was as follows: 15 μL of BACE working solution was pipetted into each well of a 96-well plate. To each well was then pipetted 2 μL of test compound at the selected concentration. Test compound and BACE were then mixed with a pipettor and incubated for 20 min at room temperature. To each well was then added 10 μL of the FS1 substrate working solution. The fluorescence for each well was then measured on a Polarstar fluorometer (Ex 390 nm/Em 520 nm) for 20 min at room temperature, reading fluorescence at 1 min intervals.\nas §3, with “for the positive control” for “for this assay”, “well to be used as” for “well of”, “a positive control.” for “a 96-well plate.”, “of vehicle. Vehicle” for “of test compound at the selected concentration. Test compound”, “fluorescence” for “fluorescence for each well”\nFor test compounds, Ki inhibition was determined as follows: For each compound concentration and positive control, rate of cleavage of substrate (Vi, where i=compound concentration in μM) was determined as Δ Fluorescence/Δ time (min). Cleavage rates (Vi) were plotted as a function of inhibitor concentration in μM [I]. The Ki was then determined by fitting the following equation to the graph of [I] vs Vi Y=aVmax/(50+24*(1+X/Ki)),"}, "β-secretase (BACE) [3]": {"molecular_target": "T1, β-secretase (BACE)", "experiment": "In Vitro BACE IC50 Assay, MCA-substrate (Example 13)", "conditions": "1 hour at room temperature", "text": "The following standards are reagents were used in this assay: Sodium Citrate trisodium salt dihydrate (Sigma), Citric Acid monohydrate (Merck), PEG8000 (Sigma), MCA-substrate (Bachem), β-secretase (BACE) (Panvera), 96-well black plate (Costar (Elscolab)), StatVal (Bachem). The standard assay buffer solution prepared and used in this assay is as follows: 0.05 M, pH 5.0 mixture of sodium citrate trisodium salt dihydrate (9.56 g), citric acid monohydrate (3.68 g) and PEG8000 (0.50 g). The MCA-substrate stock solution was prepared by mixing 10 mg MCA-substrate with 5 mL DMSO for a final solution concentration of 2.0 mg/mL. […]\nBriefly, the procedure for this BACE IC50 assay was as follows. […] Each well was mixed for a few seconds and the T0 measured with a Fluoroscan Ex320/Em405. The plates were then incubated for 1 hour at room temperature and the T60 measured with the Fluoroscan Ex 320 nm/Em 405 nm.\nThe procedure for the blank (reference well) was as follows. […] The T0 was measured with the Fluoroscan Ex 320 nm/Em 405 nm, the plate was incubated for 1 hour at room temperature and the T60 was then measured with the Fluoroscan Ex 320 nm/Em 405 nm.\nThe procedure for the positive control was as follows. […] The T0 was measured with the Fluoroscan Ex 320 nm/Em 405 nm, the plate was incubated for 1 hour at room temperature and the T60 was then measured with the Fluoroscan Ex 320 nm/Em 405 nm. […]"}},
  "data": [
    {"smiles": "CN(C(=O)CCc1cc2cc(Oc3ccccc3)ccc2nc1N)C1CCCCC1", "note": "[compound 1]", "values": [
      {"measurement": "% Inhibition 3 μM", "setting": "β-secretase (BACE) [1]", "value": "−8.5", "unit": "%"},
      {"measurement": "% Inhibition 10 μM", "setting": "β-secretase (BACE) [1]", "value": 9, "unit": "%"}
    ]},
    {"smiles": "CN(C(=O)CCC1Cc2cc(Oc3ccccc3)ccc2N=C1N)C1CCCCC1", "note": "(stereo not shown) [compound 101]", "values": [
      {"measurement": "Ki", "setting": "β-secretase (BACE) [2]", "value": 0.1, "unit": "µM"},
      {"measurement": "Ki", "setting": "β-secretase (BACE) [1]", "value": 280, "unit": "nM"}
    ]},
    {"smiles": "CN(C(=O)CC[C@H]1Cc2cc(Oc3ccccc3)ccc2N=C1N)C1CCCCC1", "note": "[compound 102]", "values": [
      {"measurement": "IC50", "setting": "β-secretase (BACE) [3]", "value": 170, "unit": "nM"}
    ]},
    {"smiles": "CN(C(=O)CC[C@@H]1Cc2cc(Oc3ccccc3)ccc2N=C1N)C1CCCCC1", "note": "[compound 103]", "values": [
      {"measurement": "IC50", "setting": "β-secretase (BACE) [3]", "value": 220, "unit": "nM"}
    ]},
    {"smiles": "CC(C)(C)OC(=O)CCc1cc2cc(Oc3ccccc3)ccc2nc1N", "note": "[compound 501]", "values": [
      {"measurement": "% Inhibition 3 μM", "setting": "β-secretase (BACE) [1]", "value": 12, "unit": "%"},
      {"measurement": "% Inhibition 10 μM", "setting": "β-secretase (BACE) [1]", "value": "−36", "unit": "%"}
    ]},
    {"smiles": "Nc1nc2ccc(Oc3ccccc3)cc2cc1CCC(=O)O", "note": "[compound 502]", "values": [
      {"measurement": "% Inhibition 3 μM", "setting": "β-secretase (BACE) [1]", "value": "−8", "unit": "%"},
      {"measurement": "% Inhibition 10 μM", "setting": "β-secretase (BACE) [1]", "value": "−16", "unit": "%"}
    ]}
  ]
}
